Biological target: T1, Prostacyclin Receptors (IP Receptors) of Human Thrombocyte Membranes (Homo sapiens, UniProt P43119)
T1 construct: Thrombocyte membranes are obtained by centrifuging 50 ml human blood; tissue Maco Pharma, Langen (buffy coats); host or cells: human thrombocyte (platelet) membranes from human blood
Assay: Binding to prostacyclin receptors (IP receptors) of human thrombocyte membranes (3H-Iloprost displacement)
Details: 3 nM 3H-Iloprost, 300-1000 μg/ml human thrombocyte membranes, 60 min, room temperature
Protocol: B-1. Studies of Binding to Prostacyclin Receptors (IP Receptors) of Human Thrombocyte Membranes
Thrombocyte membranes are obtained by centrifuging 50 ml human blood (Buffy coats with CDP Stabilizer, from Maco Pharma, Langen) for 20 min at 160×g. Remove the supernatant (platelet-rich plasma, PRP) and then centrifuge again at 2000×g for 10 min at room temperature. Resuspend the sediment in 50 mM tris-(hydroxymethyl)-aminomethane, which has been adjusted to a pH of 7.4 with 1 N hydrochloric acid, and store at −20° C. overnight. On the next day, centrifuge the suspension at 80000×g and 4° C. for 30 min. Discard the supernatant. Resuspend the sediment in 50 mM tris-(hydroxymethyl)-aminomethane/hydrochloric acid, 0.25 mM ethylene diamine tetraacetic acid (EDTA), pH 7.4, and then centrifuge once again at 80000×g and 4° C. for 30 min. Take up the membrane sediment in binding buffer (50 mM tris-(hydroxymethyl)-aminomethane/hydrochloric acid, 5 mM magnesium chloride, pH 7.4) and store at −70° C. until the binding test.
For the binding test, incubate 3 nM ^3H-Iloprost (592 GBq/mmol, from AmershamBioscience) for 60 min with 300-1000 μg/ml human thrombocyte membranes per charge (max. 0.2 ml) in the presence of the test substances at room temperature. After stopping, add cold binding buffer to the membranes and wash with 0.1% bovine serum albumin. After adding Ultima Gold Scintillator, quantify the radioactivity bound to the membranes using a scintillation counter. The nonspecific binding is defined as radioactivity in the presence of 1 μM Iloprost (from Cayman Chemical, Ann Arbor) and is as a rule <25% of the bound total radioactivity. The binding data (IC50 values) are determined using the program GraphPad Prism Version 3.02.

T1 sequence (P43119 whole entry): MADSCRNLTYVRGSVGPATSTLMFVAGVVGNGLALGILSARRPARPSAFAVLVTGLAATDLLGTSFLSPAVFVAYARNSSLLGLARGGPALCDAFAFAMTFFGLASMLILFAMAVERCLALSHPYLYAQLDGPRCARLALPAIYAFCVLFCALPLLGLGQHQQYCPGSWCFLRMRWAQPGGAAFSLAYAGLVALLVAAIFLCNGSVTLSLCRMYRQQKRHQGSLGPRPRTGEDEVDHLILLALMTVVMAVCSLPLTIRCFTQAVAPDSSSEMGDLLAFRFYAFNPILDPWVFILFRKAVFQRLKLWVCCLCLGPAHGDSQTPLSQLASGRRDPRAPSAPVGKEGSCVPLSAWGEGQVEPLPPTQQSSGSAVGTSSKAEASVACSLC

| IC50 [nM] | Compound |
| --- | --- |
| 37 | COC(=O)CCCCC(C)Oc1ncnc2oc(-c3ccccc3)c(-c3ccc(OC)cc3)c12 (racemic) [Example 63, (+/−)-6-{[5-(4-Methoxyphenyl)-6-phenylfuro[2,3-d]pyrimidin-4-yl]oxy}heptanoic acid methyl ester] |
| 219 | COc1ccc(-c2c(-c3ccccc3)oc3ncnc(OC(C)CN(C)CCCC(=O)O)c23)cc1 (racemic) [Example 92, (+/−)-4-[(2-{[5-(4-Methoxyphenyl)-6-phenylfuro[2,3-d]pyrimidin-4-yl]oxy}propyl)(methyl)-amino]butanoic acid] |
| 33 | COc1ccc(-c2c(-c3ccccc3)oc3ncnc(OCC(C)COCC(=O)O)c23)cc1 (single isomer, unassigned; enantiomer 1) [Example 128, (+)-(3-{[5-(4-Methoxyphenyl)-6-phenylfuro[2,3-d]pyrimidin-4-yl]oxy}-2-methylpropoxy)acetic acid (Enantiomer 1)] |
| 206 | COc1ccc(-c2c(-c3ccccc3)oc3ncnc(NCCCCCC(=O)O)c23)cc1 [Example 1, 6-{[5-(4-Methoxyphenyl)-6-phenylfuro[2,3-d]pyrimidin-4-yl]amino}hexanoic acid] |
| 34 | COc1ccc(-c2c(-c3ccccc3)oc3ncnc(NCCCCCc4nnn[nH]4)c23)cc1 [Example 4, 5-(4-Methoxyphenyl)-6-phenyl-N-[5-(1H-tetrazol-5-yl)pentyl]furo[2,3-d]pyrimidine-4-amine] |
| 49 | COc1ccc(-c2c(-c3ccccc3)oc3ncnc(OCCCCCc4nnn[nH]4)c23)cc1 [Example 14, 5-(4-Methoxyphenyl)-6-phenyl-4-{[5-(1H-tetrazol-5-yl)pentyl]oxy}-furo[2,3-d]pyrimidine] |
| 82 | COc1ccc(-c2c(-c3ccccc3)oc3ncnc(NCCCOCCc4nnn[nH]4)c23)cc1 [Example 15, 5-(4-Methoxyphenyl)-6-phenyl-N-{3-[2-(1H-tetrazol-5-yl)ethoxy]propyl}furo[2,3-d]pyrimidine-4-amine] |
| 64 | C=Cc1ccc(-c2c(-c3ccccc3)oc3ncnc(NCCCCCC(=O)O)c23)cc1 [Example 33] |
| 217 | CCc1ccc(-c2c(-c3ccccc3)oc3ncnc(NCCCCCC(=O)OC)c23)cc1 [Example 36] |
| 895 | COC(=O)CCCCCN(C)c1ncnc2oc(-c3ccccc3)c(-c3ccc(OC)cc3)c12 [Example 45, 6-{[5-(4-Methoxyphenyl)-6-phenylfuro[2,3-d]pyrimidin-4-yl](methyl)amino}hexanoic acid methyl ester] |
| 22 | CCc1ccc(-c2c(-c3ccccc3)oc3ncnc(O[C@H](C)CCOCC(=O)O)c23)cc1 [Example 80, (−)-{[3-{[5-(4-Ethylphenyl)-6-phenylfuro[2,3-d]pyrimidin-4-yl]oxy}butyl]oxy}acetic acid] |
| 20 | COc1ccc(-c2c(-c3ccccc3)oc3ncnc(OC[C@H](C)OCCC(=O)O)c23)cc1 [Example 83, (+)-3-{[(2S)-2-{[5-(4-Methoxyphenyl)-6-phenylfuro[2,3-d]pyrimidin-4-yl]oxy}-1-methylethoxy]-oxy}propionic acid] |
| 470 | CCc1ccc(-c2c(-c3ccccc3)oc3ncnc(O[C@@H](C)COCCC(=O)O)c23)cc1 [Example 85, (+)-3-{[2-{[5-(4-Ethylphenyl)-6-phenylfuro[2,3-d]pyrimidin-4-yl]oxy}propyl]oxy}propionic acid] |
| 10 | COc1ccc(-c2c(-c3ccccc3)oc3ncnc(OCC(C)(C)COCC(=O)O)c23)cc1 [Example 95, (3-{[5-(4-Methoxyphenyl)-6-phenylfuro[2,3-d]pyrimidin-4-yl]oxy}-2,2-dimethylpropoxy)acetic acid] |
| 51 | COC(=O)CCCCCNc1ncnc2oc(-c3ccccc3F)c(-c3ccc(OC)cc3)c12 [Example 113, 6-{[6-(2-Fluorophenyl)-5-(4-methoxyphenyl)furo[2,3-d]pyrimidin-4-yl]amino}hexanoic acid methyl ester] |
| 84 | COc1ccc(-c2c(-c3ccccc3Cl)oc3ncnc(NCCCCCC(=O)O)c23)cc1 [Example 117, 6-{[6-(2-Chlorophenyl)-5-(4-methoxyphenyl)furo[2,3-d]pyrimidin-4-yl]amino}hexanoic acid] |
| 48 | COc1ccc(-c2c(-c3ccccc3C)oc3ncnc(NCCCCCC(=O)O)c23)cc1 [Example 122, 6-{[5-(4-Methoxyphenyl)-6-(2-methylphenyl)furo[2,3-d]pyrimidin-4-yl]amino}hexanoic acid] |
| 53 | COc1ccc(-c2c(-c3ccccc3F)oc3ncnc(O[C@@H](C)CN(C)CCCC(=O)O)c23)cc1 [Example 138, (+)-4-{[(2S)-2-{[6-(2-Fluorophenyl)-5-(4-methoxyphenyl)furo[2,3-d]pyrimidin-4-yl]oxy}propyl]-(methyl)amino}butyric acid] |
| 52 | CCc1ccc(-c2c(-c3ccccc3)oc3ncnc(O[C@@H](C)CN(C)CCCC(=O)O)c23)cc1 [Example 140, (+)-4-{[(2S)-2-{[5-(4-Ethylphenyl)-6-phenylfuro[2,3-d]pyrimidin-4-yl]oxy}propyl](methyl)-amino}butyric acid] |
| 2.5 | CCc1ccc(-c2c(-c3ccccc3F)oc3ncnc(O[C@H](C)CCCCC(=O)O)c23)cc1 [Example 142, (−)-(6R)-6-{[5-(4-Ethylphenyl)-6-(2-fluorophenyl)furo[2,3-d]pyrimidin-4-yl]oxy}heptanoic acid] |
| 3.7 | CCOC(=O)COC[C@@H](C)COc1ncnc2oc(-c3ccccc3F)c(-c3ccc(OC)cc3)c12 [Example 152, (−)-{[(2R)-3-{[5-(4-Methoxyphenyl)-6-(2-fluorophenyl)furo[2,3-d]pyrimidin-4-yl]oxy}-2-methyl-propyl]oxy}acetic acid ethyl ester] |
| 3.8 | CCc1ccc(-c2c(-c3ccccc3F)oc3ncnc(OC[C@H](C)COCC(=O)O)c23)cc1 [Example 154, (−)-{[(2R)-3-{[5-(4-Ethylphenyl)-6-(2-fluorophenyl)furo[2,3-d]pyrimidin-4-yl]oxy}-2-methyl-propyl]oxy}acetic acid] |
| 13 | CCc1ccc(-c2c(-c3ccccc3F)oc3ncnc(OC[C@H](C)OCCC(=O)O)c23)cc1 [Example 156, 3-[(1S)-2-{[5-(4-Ethylphenyl)-6-(2-fluorophenyl)furo[2,3-d]pyrimidin-4-yl]oxy}-1-methylethoxy]-propionic acid] |

| Compound | IC50 [nM] |
| --- | --- |
| COc1ccc(-c2c(-c3ccccc3)oc3ncnc(O[C@H](C)CCCCC(=O)O)c23)cc1 (single isomer, unassigned; enantiomer 2) [Example 69, (−)-6-{[5-(4-Methoxyphenyl)-6-phenylfuro[2,3-d]pyrimidin-4-yl]oxy}heptanoic acid (Enantiomer 2)] | 9 |
| COc1ccc(-c2c(-c3ccccc3)oc3ncnc(OC(C)CC(C)OCC(=O)O)c23)cc1 (single isomer, unassigned; enantiomer 2) [Example 146, (3-{[5-(4-Methoxyphenyl)-6-phenylfuro[2,3-d]pyrimidin-4-yl]oxy}-1-methylbutoxy)acetic acid (Enantiomer 2)] | 7 |
